Assay results published in US12240827B2, “Serotonin 5-HT2B inhibitory compounds” (Zoetis Services LLC, priority 2019, dated 2025).
pIC50: −log10 of the molar value.

Columns and labels:
dogs with Stage B2 MMVD = details: cited from earlier work
canine 5-HT2B receptor = biological target: T1, canine 5-HT2B receptor (Canis lupus familiaris, UniProt Q50DZ8); assay: Canine 5-HT2B (c5-HT2B) in-vitro assay, FLIPR calcium response; format: cell-based; details: CHO-K1 cells stably expressing canine 5-HT2B receptor; inhibition of EC80 serotonin calcium response
T1 construct: expressed in transfected cells; host or cells: CHO-K1
T1 sequence (Q50DZ8 1-434): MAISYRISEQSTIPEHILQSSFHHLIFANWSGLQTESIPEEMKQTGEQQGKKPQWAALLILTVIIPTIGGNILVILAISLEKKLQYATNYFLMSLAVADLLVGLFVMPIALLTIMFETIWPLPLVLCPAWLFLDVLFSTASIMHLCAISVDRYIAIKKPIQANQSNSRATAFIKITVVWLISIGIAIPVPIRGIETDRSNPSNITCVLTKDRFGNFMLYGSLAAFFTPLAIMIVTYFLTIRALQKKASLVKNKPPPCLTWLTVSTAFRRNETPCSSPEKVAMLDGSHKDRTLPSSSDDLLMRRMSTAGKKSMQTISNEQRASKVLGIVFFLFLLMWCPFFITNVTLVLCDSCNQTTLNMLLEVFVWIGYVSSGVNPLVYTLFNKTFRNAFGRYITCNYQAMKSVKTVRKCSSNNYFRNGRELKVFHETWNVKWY
Method: CHO-K1 cells stably expressing the canine 5-HT2B receptor were seeded at 20,000 cells per well in 20 μl culture media (DMEM with GlutaMAX™ high glucose+5% dialyzed FBS+10 mM HEPES+1×MEM Non-Essential Amino Acids of a 384-well black plate with clear bottom for at least 18 hours at 37° C. and 5% CO2. The cell plate was loaded with 20 μl/well of the FLIPR® Calcium 5 Assay kit prepared in HBSS containing calcium and magnesium supplemented with 20 mM HEPES and 5 mM Probenecid at pH 7.4 and incubated at 37° C. and 5% CO2 for 30 minutes and then an additional 30 minutes at room temperature. The intracellular calcium response was measured using the FLIPR Tetra® instrument measuring the kinetic response of the Calcium 5 dye at an excitation wavelength of 470-495 nm and emission wavelength of 515-575 nm at room temperature. The cells were initially challenged with a 5× concentration of the antagonist (10 μl/well) after an initial baseline recording and the calcium response was recorded for almost 2 minutes. After the completion of the initial antagonist challenge, the cell plate was incubated at room temperature in the FLIPR Tetra® instrument for 10 minutes. Finally, a second kinetic assay was performed after the 10 minute incubation at room temperature to measure the inhibitory response of the EC80 concentration of serotonin (15 μl/well) after an initial baseline recording. The IC50 concentration was determined for each antagonist tested.

hERG = biological target: T2, hERG (Homo sapiens, UniProt Q12809); assay: hERG in-vitro assay, IonWorks Barracuda population patch clamp; format: cell-based; details: hERG/HEK293 cells; hERG current block, 5 minutes exposure
T2 construct: stably transfected with full length hERG cDNA; expressed in transfected cells; host or cells: HEK293
T2 sequence (Q12809 whole entry): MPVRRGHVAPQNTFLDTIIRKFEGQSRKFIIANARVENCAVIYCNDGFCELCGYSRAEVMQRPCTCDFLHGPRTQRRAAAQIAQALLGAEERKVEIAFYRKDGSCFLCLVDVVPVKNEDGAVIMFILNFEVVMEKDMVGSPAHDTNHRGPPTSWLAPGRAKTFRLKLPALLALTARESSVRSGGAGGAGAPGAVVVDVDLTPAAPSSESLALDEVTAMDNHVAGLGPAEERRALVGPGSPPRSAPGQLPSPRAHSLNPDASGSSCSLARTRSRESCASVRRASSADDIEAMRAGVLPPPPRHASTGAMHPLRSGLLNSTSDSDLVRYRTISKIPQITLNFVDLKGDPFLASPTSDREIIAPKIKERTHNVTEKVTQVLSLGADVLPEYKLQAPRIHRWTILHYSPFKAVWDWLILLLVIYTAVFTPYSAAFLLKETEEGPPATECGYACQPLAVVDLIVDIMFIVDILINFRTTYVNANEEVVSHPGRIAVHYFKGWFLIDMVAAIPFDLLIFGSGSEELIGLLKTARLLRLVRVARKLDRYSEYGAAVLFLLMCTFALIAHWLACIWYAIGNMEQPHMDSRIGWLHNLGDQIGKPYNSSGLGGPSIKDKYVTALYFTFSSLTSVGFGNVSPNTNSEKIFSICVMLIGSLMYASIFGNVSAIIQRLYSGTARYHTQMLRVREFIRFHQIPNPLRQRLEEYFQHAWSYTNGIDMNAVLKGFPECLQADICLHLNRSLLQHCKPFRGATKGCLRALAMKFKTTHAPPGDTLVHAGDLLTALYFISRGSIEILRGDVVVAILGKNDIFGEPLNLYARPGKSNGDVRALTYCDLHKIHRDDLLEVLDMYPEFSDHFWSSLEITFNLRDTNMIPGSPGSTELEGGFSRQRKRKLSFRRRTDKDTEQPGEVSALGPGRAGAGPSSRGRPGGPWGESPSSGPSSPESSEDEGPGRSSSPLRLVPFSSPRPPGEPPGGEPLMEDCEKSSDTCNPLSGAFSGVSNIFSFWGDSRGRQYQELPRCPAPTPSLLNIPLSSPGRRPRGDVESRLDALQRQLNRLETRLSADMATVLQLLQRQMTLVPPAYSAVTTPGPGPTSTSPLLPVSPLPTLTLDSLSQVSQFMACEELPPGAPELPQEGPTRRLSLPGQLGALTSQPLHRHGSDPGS
Method: Stock solutions of compounds of the invention and positive control (cisapride; 0.001-3 μM) were prepared in DMSO. Stock solutions were diluted in a HEPES-buffered physiological saline solution. Test and control solutions contained 0.3% DMSO. Human hERG/HEK293 renal epithelial cells stably transfected with full length hERG cDNA were cultured in Dulbecco's Modified Eagle Medium/Nutrient Mixture F-12 (D-MEM/F-12) supplemented with 10% fetal bovine serum, 100 U/mL penicillin G sodium, 100 μg/mL streptomycin sulfate and 500 μg/mL G418. Before testing, cells in culture dishes were rinsed with Hank's Balanced Salt Solution (HBSS) and detached with accutase. Immediately before use in the IonWorks Barracuda™ system, the cells were washed with buffered physiological saline solution (HB-PS) buffer to remove the accutase and re-suspended in 5 mL of HB-PS. The test article effects were evaluated using IonWorks Barracuda™ systems (Molecular Devices Corporation, Union City, CA). HEPES-buffered intracellular solution for whole cell recordings was loaded into the intracellular compartment of the Population Patch Clamp™ (PPC) planar electrode.
Extracellular buffer (HB-PS) was loaded into PPC planar electrode plate wells (11 μL/well). The cell suspension was pipetted into the wells of the PPC planar electrode (9 μL/well). After establishment of a whole-cell configuration (the perforated patch), membrane currents were recorded using patch clamp amplifier in the IonWorks Barracuda™ system. The current recordings were performed one (1) time before test article application to the cells (baseline) and one (1) time after application of the test article. Test article concentrations were applied to naïve cells. Each application consisted of addition of 20 μL of 2× concentrated test article solution to the total 40 μL of final volume of the extracellular well of the PPC plate. Duration of exposure to each compound concentration was five (5) minutes. hERG current was elicited using a pulse pattern with fixed amplitudes (the first conditioning pre-pulse to 10 mV for 60 second, the second conditioning pre-pulse: −90 mV for 20 ms; the test pulse: +40 mV for 100 ms) from a holding potential of 0 mV (‘zero holding’ procedure). hERG current was measured as a difference between the peak current at 1 ms and at the end of test step to +40 mV. Data acquisition and analyses were performed using the IonWorks Barracuda™ system operation software (version 2.0.2). The decrease in current amplitude after test article application was used to calculate the percent block relative to control. Results for each test article concentration (n≥1) were averaged; the mean and standard deviation values were calculated and used to generate dose-response curves.

c5-HT2B = details: literature value; cited from earlier work

Row | SMILES | pIC50 (canine 5-HT2B receptor) | time longer to develop CHF or die from MMVD than dogs receiving placebo (dogs with Stage B2 MMVD; pimobendan 0.2 or 0.3 mg/kg twice a day) | delay in prolonging preclinical stage (dogs with Stage B2 MMVD; versus placebo) | pIC50 (hERG) | pIC50 (c5-HT2B)
1 | COc1ccc(-c2nc3ccc(C4=NNC(=O)CC4C)cc3[nH]2)cc1 (centres unmarked) [pimobendan] |  | 462 days | 60% |  | 
2 | O=C(c1ccc2c(c1)[nH]c1ccccc12)N1CCC(c2ncc[nH]2)CC1 [Example 14, (4-(1H-imidazol-2-yl)piperidin-1-yl)(9H-carbazol-2-yl)methanone] | 8.89 |  |  | 5.24 | 
3 | O=C(c1ccc(-n2ccc3ccccc32)cc1)N1CCC(c2ncc[nH]2)CC1 [Example 18, (4-(1H-imidazol-2-yl)piperidin-1-yl)(4-(1H-indol-1-yl)phenyl)methanone] | 11.00 |  |  | 5.47 | 
4 | O=C(c1ccc(-c2ccc(C(F)(F)F)s2)cc1)N1CCC(c2ncc[nH]2)CC1 [Example 22, (4-(1H-imidazol-2-yl)piperidin-1-yl)(4-(5-(trifluoromethyl)thiophen-2-yl)phenyl)methanone] | 7.69 |  |  | 5.55 | 
5 | O=C(c1ccc(-c2ccc(C(F)F)cc2)cc1)N1CCC(Nc2ncc[nH]2)CC1 [Example 33, (4-((1H-imidazol-2-yl)amino)piperidin-1-yl)(4′-(difluoromethyl)-[1,1′-biphenyl]-4-yl)methanone] | 7.73 |  |  | 5.28 | 
6 | O=C(c1ccc(-c2ccccc2)nc1)N1CCC(c2ncc[nH]2)CC1 [Example 11, (4-(1H-imidazol-2-yl)piperidin-1-yl)(6-phenylpyridin-3-yl)methanone] | 8.35 |  |  | 5.48 | 
7 | O=C(c1ccc(-c2ccc(C(F)(F)F)cc2)cc1)N1CCC(Cc2ncc[nH]2)CC1 [Example 12, (4-((1H-imidazol-2-yl)methyl)piperidin-1-yl)(4′-(trifluoromethyl)-[1,1′-biphenyl]-4-yl)methanone] | 7.19 |  |  | 5.32 | 
8 | O=C(c1ccc2c(ccn2-c2ccccc2)c1)N1CCC(c2ncc[nH]2)CC1 [Example 21, (4-(1H-imidazol-2-yl)piperidin-1-yl)(1-phenyl-1H-indol-5-yl)methanone] | 8.51 |  |  | 5.37 | 
9 | O=C(c1ccc(-c2ccc(C(F)(F)F)cc2)cc1)N1CCC(Nc2ncc[nH]2)CC1 [Example 7, (4-((1H-imidazol-2-yl)amino)piperidin-1-yl)(4′-(trifluoromethyl)-[1,1′-biphenyl]-4-yl)methanone] | 7.52 |  |  | 5.60 | 
10 | O=C(c1ccc(-c2ccc(OC(F)(F)F)cc2)cc1)N1CCC(c2nc3ccccc3[nH]2)CC1 [CA-2, (4-(1H-benzo[d]imidazol-2-yl)piperidin-1-yl)(4′-(trifluoromethoxy)-[1,1′-biphenyl]-4-yl)methanone] |  |  |  |  | 7.02

Second part, led by results:

Row | pIC50 (canine 5-HT2B receptor) | SMILES | time longer to develop CHF or die from MMVD than dogs receiving placebo (dogs with Stage B2 MMVD; pimobendan 0.2 or 0.3 mg/kg twice a day) | delay in prolonging preclinical stage (dogs with Stage B2 MMVD; versus placebo) | pIC50 (hERG) | pIC50 (c5-HT2B)
11 | 8.35 | Cc1cnc(C2CCN(C(=O)c3ccc4c(-c5ccccc5)c[nH]c4c3)CC2)[nH]1 [Example 31, (4-(5-methyl-1H-imidazol-2-yl)piperidin-1-yl)(3-phenyl-1H-indol-6-yl)methanone] |  |  | 4.71 | 
12 | 8.85 | O=C(c1ccc(-c2ccc3c(c2)OCO3)cc1)N1CCC(c2ncc[nH]2)CC1 [Example 13, (4-(1H-imidazol-2-yl)piperidin-1-yl)(4-(benzo[d][1,3]dioxol-5-yl)phenyl)methanone] |  |  | 5.76 | 
13 | 8.29 | O=C(c1ccc(-c2ccc(C(F)(F)F)cc2)cc1)N1CCC(c2ncc[nH]2)CC1 [Example 3, (4-(1H-imidazol-2-yl)piperidin-1-yl)(4′-(trifluoromethyl)-[1,1′-biphenyl]-4-yl)methanone] |  |  | 5.46 | 
14 | 7.68 | Cc1c[nH]c(C2CCN(C(=O)c3ccc(-c4c[nH]c5ccc(F)cc45)cc3)CC2)n1 [Example 34, (4-(5-fluoro-1H-indol-3-yl)phenyl)(4-(4-methyl-1H-imidazol-2-yl)piperidin-1-yl)methanone] |  |  | 4.86 | 
15 | 9.48 | Cc1cnc(C2CCN(C(=O)c3ccc(-c4c[nH]c5ccccc45)cc3)CC2)[nH]1 [Example 5, (4-(1H-indol-3-yl)phenyl)(4-(5-methyl-1H-imidazol-2-yl)piperidin-1-yl)methanone] |  |  | 5.18 | 
